Measured values as given in patent US9238656B2, “Imidazo[4,5-b]pyridine derivatives as ALK and JAK modulators for the treatment of proliferative disorders” (priority 2012, dated 2016).
Where a name gives a salt, the structure may show the parent alone. Read-outs that look alike come from different tables or passages of the source.

Columns and labels:
[1] = molecular target: baculovirus-expressed ALK (Homo sapiens, UniProt Q9UM73); assay: ALK kinase inhibition, TRF/ELISA; assay type: biochemical; settings: read-out: ALK Potency
Method in brief: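 Eu-PT66 anti-phosphotyrosine TRF read-out measured phosphorylation of plate-bound GST-PLC-γ (coated at 10 μg/mL). The phosphorylation was driven by 30 ng/mL ALK for 15 minutes at 37° C.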

[2] = molecular target: baculovirus-expressed JAK2 kinase (Homo sapiens, UniProt O60674); assay: biochemical
Method in brief: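 IC50 derived by variable-slope sigmoidal fit of percent inhibition against log compound concentration. Baculovirus-expressed JAK2 (15 ng/mL) phosphorylated a plate-bound biotinylated 15-mer peptide for 20 min at room temperature; detection by time-resolved fluorescence.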

[3] = 0.2 μM ATP, read-out: JAK2 Potency

Sequence of baculovirus-expressed ALK (Q9UM73 19-1620): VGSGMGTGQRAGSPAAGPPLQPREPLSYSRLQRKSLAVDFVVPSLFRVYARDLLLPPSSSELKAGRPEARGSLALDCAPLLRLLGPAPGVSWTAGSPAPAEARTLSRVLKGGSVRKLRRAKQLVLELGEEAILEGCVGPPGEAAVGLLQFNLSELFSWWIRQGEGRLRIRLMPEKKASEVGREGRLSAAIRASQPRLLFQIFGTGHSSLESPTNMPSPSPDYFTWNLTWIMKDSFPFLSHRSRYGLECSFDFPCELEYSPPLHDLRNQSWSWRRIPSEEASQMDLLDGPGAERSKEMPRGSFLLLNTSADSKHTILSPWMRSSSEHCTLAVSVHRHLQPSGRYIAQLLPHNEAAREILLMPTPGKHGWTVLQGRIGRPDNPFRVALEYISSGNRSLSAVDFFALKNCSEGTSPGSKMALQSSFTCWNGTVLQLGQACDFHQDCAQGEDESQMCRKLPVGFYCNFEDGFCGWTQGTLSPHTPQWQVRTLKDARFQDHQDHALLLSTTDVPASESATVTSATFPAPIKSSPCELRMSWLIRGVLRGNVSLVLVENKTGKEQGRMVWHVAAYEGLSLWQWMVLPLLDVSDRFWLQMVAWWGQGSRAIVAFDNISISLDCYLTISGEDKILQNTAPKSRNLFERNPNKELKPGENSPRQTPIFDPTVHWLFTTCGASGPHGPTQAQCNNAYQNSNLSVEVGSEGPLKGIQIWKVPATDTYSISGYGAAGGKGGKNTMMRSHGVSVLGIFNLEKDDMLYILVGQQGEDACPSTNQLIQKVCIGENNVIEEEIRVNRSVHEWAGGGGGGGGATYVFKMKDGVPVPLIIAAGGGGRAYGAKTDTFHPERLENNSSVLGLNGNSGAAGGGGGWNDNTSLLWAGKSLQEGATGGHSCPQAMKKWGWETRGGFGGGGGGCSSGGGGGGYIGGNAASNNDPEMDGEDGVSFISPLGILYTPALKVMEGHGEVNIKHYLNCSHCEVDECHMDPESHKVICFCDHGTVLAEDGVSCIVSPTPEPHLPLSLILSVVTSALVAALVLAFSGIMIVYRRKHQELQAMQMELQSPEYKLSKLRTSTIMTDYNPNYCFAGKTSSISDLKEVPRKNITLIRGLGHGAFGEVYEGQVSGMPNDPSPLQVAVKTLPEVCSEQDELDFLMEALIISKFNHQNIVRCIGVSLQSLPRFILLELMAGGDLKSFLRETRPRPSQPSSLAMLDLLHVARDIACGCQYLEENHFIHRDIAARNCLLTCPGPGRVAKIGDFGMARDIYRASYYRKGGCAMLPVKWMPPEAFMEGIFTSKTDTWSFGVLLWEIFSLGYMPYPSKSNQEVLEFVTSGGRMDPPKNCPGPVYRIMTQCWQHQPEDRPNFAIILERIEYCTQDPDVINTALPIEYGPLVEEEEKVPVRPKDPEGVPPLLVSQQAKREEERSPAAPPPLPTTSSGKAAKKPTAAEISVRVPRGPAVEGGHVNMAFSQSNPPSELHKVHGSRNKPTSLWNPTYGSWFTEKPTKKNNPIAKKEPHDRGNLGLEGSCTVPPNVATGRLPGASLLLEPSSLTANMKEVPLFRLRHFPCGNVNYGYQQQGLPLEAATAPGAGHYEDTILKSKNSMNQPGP
Sequence of baculovirus-expressed JAK2 kinase (O60674 whole entry): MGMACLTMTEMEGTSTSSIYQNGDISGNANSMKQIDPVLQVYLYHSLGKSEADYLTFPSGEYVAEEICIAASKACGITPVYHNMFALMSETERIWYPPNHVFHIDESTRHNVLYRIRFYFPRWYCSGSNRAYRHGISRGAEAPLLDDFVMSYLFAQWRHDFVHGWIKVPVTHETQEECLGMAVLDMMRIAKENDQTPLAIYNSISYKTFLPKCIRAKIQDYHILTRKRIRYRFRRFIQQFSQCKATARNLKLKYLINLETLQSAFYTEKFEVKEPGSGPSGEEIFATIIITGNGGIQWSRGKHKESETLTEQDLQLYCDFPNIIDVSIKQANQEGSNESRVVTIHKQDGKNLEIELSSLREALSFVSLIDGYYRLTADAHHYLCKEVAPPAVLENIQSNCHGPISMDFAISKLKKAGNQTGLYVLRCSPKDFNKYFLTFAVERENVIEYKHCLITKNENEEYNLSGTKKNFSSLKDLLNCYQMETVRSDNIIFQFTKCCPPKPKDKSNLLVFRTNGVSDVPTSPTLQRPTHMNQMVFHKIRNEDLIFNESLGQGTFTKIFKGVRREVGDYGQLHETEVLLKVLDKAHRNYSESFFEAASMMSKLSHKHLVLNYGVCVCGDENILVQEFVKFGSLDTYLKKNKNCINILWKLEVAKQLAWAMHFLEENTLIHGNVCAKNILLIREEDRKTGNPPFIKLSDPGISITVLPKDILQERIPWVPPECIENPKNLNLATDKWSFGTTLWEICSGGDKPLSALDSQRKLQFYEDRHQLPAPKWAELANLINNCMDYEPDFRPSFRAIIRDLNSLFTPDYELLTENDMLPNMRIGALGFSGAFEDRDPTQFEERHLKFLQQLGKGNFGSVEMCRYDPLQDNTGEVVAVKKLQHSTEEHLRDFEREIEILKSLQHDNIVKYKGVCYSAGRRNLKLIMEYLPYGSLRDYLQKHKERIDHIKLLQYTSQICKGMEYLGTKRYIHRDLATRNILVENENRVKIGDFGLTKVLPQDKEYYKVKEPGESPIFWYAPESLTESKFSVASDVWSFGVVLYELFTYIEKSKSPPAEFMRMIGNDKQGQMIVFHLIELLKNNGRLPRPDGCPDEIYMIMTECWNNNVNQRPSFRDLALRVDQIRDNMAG

Compound	melting point [°C]	IC50 [1] [nM]	IC50 [2, 3] [nM]	IC50 ([2]; JAK2 Potency) [nM]
NC(=O)[C@@H]1[C@H](Nc2c(Br)cnc3[nH]c(-c4ccc(CN5CCOCC5)cc4)nc23)[C@H]2C=C[C@@H]1C2 (as salt: sodium) [Compound LXXX, (1S,2S,3R,4R)-3-[6-Bromo-2-(4-morpholin-4-ylmethyl-phenyl)-3H-imidazo[4,5-b]pyridin-7-ylamino]-bicyclo[2.2.1]hept-5-ene-2-carboxylic acid amide]	217 to 219			
CC(O)CN1CCN(C(=O)c2cccc(-c3nc4c(N[C@H]5[C@@H](C(N)=O)[C@@H]6C=C[C@H]5C6)c(Cl)cnc4[nH]3)c2)CC1 (stereo partly drawn) [Compound CCXXIII, (1S,2S,3R,4R)-3-(6-chloro-2-(3-(4-(2-hydroxypropyl)piperazine-1-carbonyl)phenyl)-3H-imidazo[4,5-b]pyridine-7-ylamino)pyridin[2.2.1]hept-5-ene-2-carboxamide]	183	100 to 1000	< 100	
CC(O)CN1CCN(C(=O)c2ccc(-c3nc4c(N[C@H]5[C@@H](C(N)=O)[C@@H]6C=C[C@H]5C6)c(Cl)cnc4[nH]3)cc2)CC1 (stereo partly drawn) [Compound CCXXIV, (1S,2S,3R,4R)-3-(6-chloro-2-(4-(4-(2-hydroxypropyl)piperazine-1-carbonyl)phenyl)-3H-imidazo[4,5-b]pyridine-7-ylamino)pyridin[2.2.1]hept-5-ene-2-carboxamide]	224	< 100	< 100	
NC(=O)[C@@H]1[C@H](Nc2c(Cl)cnc3[nH]c(-c4cccc(C(=O)NC(CO)C(=O)O)c4)nc23)[C@H]2C=C[C@@H]1C2 (stereo partly drawn) [Compound CCXXIX, 2-(3-(7-((1R,2R,3S,4S)-3-carbamoylbicyclo(2.2.1)hept-5-en-2-ylamino)-6-chloro-3H-imidazo[4,5-b]pyridine-2-yl)benzamido)-3-hydroxypropanoic acid]	243	1000 to 10000	< 100	
NC(=O)[C@@H]1[C@H](Nc2c(Cl)cnc3[nH]c(-c4cccc(C(=O)N5CCNC(C(=O)O)C5)c4)nc23)[C@H]2C=C[C@@H]1C2 (stereo partly drawn) [Compound CCXXV, 4-(3-(7-((1R,2R,3S,4S)-3-carbamoylbicyclo[2.2.1]hept-5-en-2-ylamino)-6-chloro-3H-imidazo[4,5-b]pyridine-2-yl)benzoyl)piperazine-2-carboxylic acid]	261	100 to 1000	< 100	
NC(=O)[C@@H]1[C@H](Nc2c(Cl)cnc3[nH]c(-c4ccc(C(=O)NCC(=O)O)cc4)nc23)[C@H]2C=C[C@@H]1C2 [Compound CCXXVIII, 2-(4-(7-((1R,2R,3S,4S)-3-carbamoylbicyclo[2.2.1]hept-5-en-2-ylamino)-6-chloro-3H-imidazo[4,5-b]pyridine-2-yl)benzamido)acetic acid]	291	100 to 1000	< 100	
NC(=O)[C@@H]1[C@H](Nc2c(Cl)cnc3[nH]c(-c4ccc(C(=O)NC(CO)C(=O)O)cc4)nc23)[C@H]2C=C[C@@H]1C2 (stereo partly drawn) [Compound CCXXX, 2-(4-(7-((1R,2R,3S,4S)-3-carbamoylbicyclo(2.2.1)hept-5-en-2-ylamino)-6-chloro-3H-imidazo[4,5-b]pyridine-2-yl)benzamido)-3-hydroxypropanoic acid]	186	100 to 1000	< 100	
COc1ncccc1-c1nc2c(N[C@H]3[C@@H](C(N)=O)[C@@H]4C=C[C@H]3C4)c(Br)cnc2[nH]1 [Compound CI, (1S,2S,3R,4R)-3-[6-Bromo-2-(2-methoxy-pyridin-3-yl)-3H-imidazo[4,5-b]pyridin-7-ylamino]-bicyclo[2.2.1]hept-5-ene-2-carboxylic acid amide]	201	< 100	< 100	
NC(=O)[C@@H]1[C@H](Nc2c(Br)cnc3[nH]c(-c4cccnc4N4CCOCC4)nc23)[C@H]2C=C[C@@H]1C2 [Compound CII, (1S,2S,3R,4R)-3-[6-Bromo-2-(2-morpholin-4-yl-pyridin-3-yl)-3H-imidazo[4,5-b]pyridin-7-ylamino]-bicyclo[2.2.1]hept-5-ene-2-carboxylic acid amide]	150	1000 to 10000	1000 to 10000	
COc1ccncc1-c1nc2c(N[C@H]3[C@@H](C(N)=O)[C@@H]4C=C[C@H]3C4)c(Br)cnc2[nH]1 [Compound CIII, (1S,2S,3R,4R)-3-[6-Bromo-2-(4-methoxy-pyridin-3-yl)-3H-imidazo[4,5-b]pyridin-7-ylamino]-bicyclo[2.2.1]hept-5-ene-2-carboxylic acid amide]	160	< 100	100 to 1000	
NC(=O)[C@@H]1[C@H](Nc2c(Br)cnc3[nH]c(-c4ccccc4-n4cccn4)nc23)[C@H]2C=C[C@@H]1C2 [Compound CIV, (1S,2S,3R,4R)-3-[6-Bromo-2-(2-pyrazol-1-yl-phenyl)-3H-imidazo[4,5-b]pyridin-7-ylamino]-bicyclo[2.2.1]hept-5-ene-2-carboxylic acid amide]	120	1000 to 10000	100 to 1000	
NC(=O)[C@@H]1[C@H](Nc2c(Br)cnc3[nH]c(-c4ccc(N5CCOCC5)cc4)nc23)[C@H]2C=C[C@@H]1C2 [Compound LXXIX, (1S,2S,3R,4R)-3-[6-Bromo-2-(4-morpholin-4-yl-phenyl)-3H-imidazo[4,5-b]pyridin-7-ylamino]-bicyclo[2.2.1]hept-5-ene-2-carboxylic acid amide]	283 to 284		< 100	
CN1CCN(c2ccc(-c3nc4c(N[C@H]5[C@@H](C(N)=O)[C@@H]6C=C[C@H]5C6)c(Br)cnc4[nH]3)cc2)CC1 [Compound LXXVIII, (1S,2S,3R,4R)-3-{6-Bromo-2-[4-(4-methyl-piperazin-1-yl)-phenyl]-3H-imidazo[4,5-b]pyridin-7-ylamino}-bicyclo[2.2.1]hept-5-ene-2-carboxylic acid amide]	215 to 218		< 100	
CN1CCN(Cc2ccc(-c3nc4c(N[C@H]5[C@@H](C(N)=O)[C@@H]6C=C[C@H]5C6)c(Cl)cnc4[nH]3)cc2)CC1 [Compound XX, (1S,2S,3R,4R)-3-{6-Chloro-2-[4-(4-methyl-piperazin-1-ylmethyl)-phenyl]-3H-imidazo[4,5-b]pyridin-7-ylamino}-bicyclo[2.2.1]hept-5-ene-2-carboxylic acid amide; compound with trifluoro-acetic acid bis trifluoroacetic acid salt]		< 100	< 100	
CN(C)c1cccc(-c2nc3c(N[C@@H]4[C@H](C(N)=O)[C@H]5C=C[C@@H]4C5)c(Cl)cnc3[nH]2)c1 [Compound XXIV, (1R,2R,3S,4S)-3-[6-Chloro-2-(3-dimethylamino-phenyl)-3H-imidazo[4,5-b]pyridine-7-ylamino]-bicyclo[2.2.1]hept-5-ene-2-carboxylic acid amide]		> 10000	100 to 1000	
COc1ccc(-c2nc3c(N[C@H]4[C@@H](C(N)=O)[C@@H]5C=C[C@H]4C5)c(Cl)cnc3[nH]2)c(C2CCN(C[C@H](C)O)CC2)c1 [Compound XXXII, (1S,2S,3R,4R)-3-(6-Chloro-2-{2-[1-((S)-2-hydroxypropyl)-piperidin-4-yl]-4-methoxy-phenyl}-3H-imidazo[4,5-b]pyridin-7-ylamino)-bicyclo[2.2.1]hept-5-ene-2-carboxylic acid amide]		1000 to 10000	1000 to 10000	
COc1ccc(-c2nc3c(N[C@H]4[C@@H](C(N)=O)[C@@H]5C=C[C@H]4C5)c(Cl)cnc3[nH]2)c(C2CCN(C[C@H](O)CO)CC2)c1 [Compound XXXIII]		100 to 1000	100 to 1000	
NC(=O)[C@@H]1[C@H](Nc2c(Cl)cnc3[nH]c(-c4cccnc4N4CCOCC4)nc23)[C@H]2C=C[C@@H]1C2 [Compound XXXIV, (1S,2S,3R,4R)-3-[6-Chloro-2-(2-morpholin-4-yl-pyridin-3-yl)-3H-imidazo[4,5-b]pyridine-7-ylamino]-bicyclo[2.2.1]hept-5-ene-2-carboxylic acid amide]		1000 to 10000	> 10000	
COc1cc(N2CCOCC2)ccc1-c1nc2c(N3C[C@@H]4C[C@H]3CN4C[C@H](C)O)c(Cl)cnc2[nH]1 [Compound XXXIX, (S)-1-[(1S,4S)-5-[6-Chloro-2-(methoxy-4-morpholin-4-yl-phenyl)-3H-imidazo[4,5-b]pyridine-7-yl]-2,5-diaza-bicyclo[2.2.1]hept-2-yl]-propan-2-ol]		> 10000	> 10000	
COc1ccncc1-c1nc2c(N[C@H]3[C@@H](C(N)=O)[C@@H]4C=C[C@H]3C4)c(Cl)cnc2[nH]1 [Compound XXXV, (1S,2S,3R,4R)-3-[6-Chloro-2-(4-methoxy-pyridin-3-yl)-3H-imidazo[4,5-b]pyridine-7-ylamino]-bicyclo[2.2.1]hept-5-ene-2-carboxylic acid amide]		100 to 1000	100 to 1000	
COc1cc(N2CCOCC2)ccc1-c1nc2c(N3C[C@@H]4C[C@H]3CN4C(=O)OC(C)(C)C)c(Cl)cnc2[nH]1 [Compound XXXVI, (1S,4S)-5-[6-Chloro-2-(2-methoxy-4-morpholinj-4-yl-phenyl)-3H-imidazol-[4,5-b]pyridine-7-yl]-2,5-diaza-bicyclo[2.2.1]heptane-2-carboxylic acid tert-butyl ester]		> 10000	1000 to 10000	
COc1cc(N2CCOCC2)ccc1-c1nc2c(N3C[C@@H]4C[C@H]3CN4)c(Cl)cnc2[nH]1 [Compound XXXVII, 6-Chloro-7-(1S,4S)-2,5-diaza-bicyclo[2.2.1]hept-2-yl-2-(2-methoxy-4-morpholin-4-yl-phenyl)-3H-imidazo[4,5-b]pyridine hydrochloride]		> 10000		1000 to 10000
